The values below come from article PMC9788692 (2022).

Test in all cases: in-line probing
The test system of assay [1] is 95 Csp (RNA, riboswitch) GGAAUGCUUCCUCCGCCACCGGGCGGAGGGUGAAAAGCGUCCACGGUCUCCCGUAGGUACGGCGCGCUCUGCGCGUUACAAGGGAGCCGCGGGCG
As to conditions: 100 mM KCl, 20 mM MgCl2, 50 mM Tris-HCl pH 8.3 (23 °C), ~48 h.

The test system of assay [2] is 105 Mja (RNA, riboswitch) GGAACACCGCUUCUGUCACCGGACAGGAGAAAUGGGGUGUCUGGGAGUUGUCGUAGGUACGGUAUGGUUGCAUGCUAUAAGACAAUUCCUGGGCACCCCUGUUUU
As to conditions: 100 mM KCl, 20 mM MgCl2; 50 mM Tris-HCl pH 8.3 (23 °C), ~48 h; highest concentration 10 mM.

Assay [3] relates to 95 Csp M2 (RNA, riboswitch) GGAAUGCUUCCUCCGCCACCGGGCGGAGGGUGAAAAGCGUCCACGGUCUCCCGUAGGAACGGCGCGCUCUGCGCGUUACAAGGGAGCCGCGGGCG
As to conditions: 100 mM KCl, 20 mM MgCl2; 50 mM Tris-HCl pH 8.3 (23 °C), ~48 h; highest concentration 10 mM; modulation almost eliminated.

For assay [4], the system named is 95 Dsu (RNA, riboswitch) GGAAACUCUUCCCUGUCACCGGAUAGGGAGCCAAGAGGGUUUAUUCCUGCUGCAGGUAAUAUGGCGAAAACCAUUGAAAGGCAGGAAUAAAUCCU
As to conditions: 100 mM KCl, 20 mM MgCl2; 50 mM Tris-HCl pH 8.3 (23 °C), ~48 h; highest concentration 10 mM.

Assay [5] concerns 81 Csp (RNA, riboswitch) GGAAUGCUUCCUCCGCCACCGGGCGGAGGGUGAAAAGCGUCCACGGUCUCCCGUAGGUACGGCGCGCUCUGCGCGUUACAA
As to conditions: 100 mM KCl, 20 mM MgCl2; 50 mM Tris-HCl pH 8.3 (23 °C), ~48 h; weaker than 95 Csp.

[6] abbreviates: weaker than guanidine, data not shown.
The mark [7] stands for this setting: highest concentration not stated.

Take `CNC(=N)N`: the binding result in assay [1] (setting [6]) is given as “weak”. Consider `N=C(N)N`, for which the binding result in assay [1] (0.61 µM-20 mM, no saturation, modulation above 1 mM) was “weak”; in assay [2] it was “no”; in assay [3], “weak”; in assay [4], “no”; in assay [5], “weak”. On to `N=C(N)NCCCCN`, for which the binding entry in assay [1] (setting [7]) was “no”. Regarding `N=C(N)NCCC[C@H](N)C(=O)O`, the binding result in assay [1] (setting [7]) is “no”. For `N=C(N)NO`, in assay [1] (setting [6]), the binding result is listed as “weak”. For `N=C(N)NOCC[C@H](N)C(=O)O`, the binding entry in assay [1] (setting [7]) is given as “no”.
